The values below come from publication PMC3382171 (PLoS ONE, 2012).

The target in one test is WNK2 (Homo sapiens, UniProt Q9Y3S1). Description: biochemical. Particulars: read-out: Upstate KSS % inhibition at 1uM. Here is the method: (§1) In these selectivity assays the concentration of ATP was set to the Km value of ATP for each kinase tested to allow for a relative potency comparison between the various kinases. The compounds were tested at 1 µM final concentration. […] (A) Kinase selectivity screen (KSS) performed at Upstate Biotechnology. […] (B) KSS performed at University of Dundee (Division of Signal Transduction Therapy). […] (PDF) Click here for additional data file.
Chain of WNK2 (Q9Y3S1 whole entry): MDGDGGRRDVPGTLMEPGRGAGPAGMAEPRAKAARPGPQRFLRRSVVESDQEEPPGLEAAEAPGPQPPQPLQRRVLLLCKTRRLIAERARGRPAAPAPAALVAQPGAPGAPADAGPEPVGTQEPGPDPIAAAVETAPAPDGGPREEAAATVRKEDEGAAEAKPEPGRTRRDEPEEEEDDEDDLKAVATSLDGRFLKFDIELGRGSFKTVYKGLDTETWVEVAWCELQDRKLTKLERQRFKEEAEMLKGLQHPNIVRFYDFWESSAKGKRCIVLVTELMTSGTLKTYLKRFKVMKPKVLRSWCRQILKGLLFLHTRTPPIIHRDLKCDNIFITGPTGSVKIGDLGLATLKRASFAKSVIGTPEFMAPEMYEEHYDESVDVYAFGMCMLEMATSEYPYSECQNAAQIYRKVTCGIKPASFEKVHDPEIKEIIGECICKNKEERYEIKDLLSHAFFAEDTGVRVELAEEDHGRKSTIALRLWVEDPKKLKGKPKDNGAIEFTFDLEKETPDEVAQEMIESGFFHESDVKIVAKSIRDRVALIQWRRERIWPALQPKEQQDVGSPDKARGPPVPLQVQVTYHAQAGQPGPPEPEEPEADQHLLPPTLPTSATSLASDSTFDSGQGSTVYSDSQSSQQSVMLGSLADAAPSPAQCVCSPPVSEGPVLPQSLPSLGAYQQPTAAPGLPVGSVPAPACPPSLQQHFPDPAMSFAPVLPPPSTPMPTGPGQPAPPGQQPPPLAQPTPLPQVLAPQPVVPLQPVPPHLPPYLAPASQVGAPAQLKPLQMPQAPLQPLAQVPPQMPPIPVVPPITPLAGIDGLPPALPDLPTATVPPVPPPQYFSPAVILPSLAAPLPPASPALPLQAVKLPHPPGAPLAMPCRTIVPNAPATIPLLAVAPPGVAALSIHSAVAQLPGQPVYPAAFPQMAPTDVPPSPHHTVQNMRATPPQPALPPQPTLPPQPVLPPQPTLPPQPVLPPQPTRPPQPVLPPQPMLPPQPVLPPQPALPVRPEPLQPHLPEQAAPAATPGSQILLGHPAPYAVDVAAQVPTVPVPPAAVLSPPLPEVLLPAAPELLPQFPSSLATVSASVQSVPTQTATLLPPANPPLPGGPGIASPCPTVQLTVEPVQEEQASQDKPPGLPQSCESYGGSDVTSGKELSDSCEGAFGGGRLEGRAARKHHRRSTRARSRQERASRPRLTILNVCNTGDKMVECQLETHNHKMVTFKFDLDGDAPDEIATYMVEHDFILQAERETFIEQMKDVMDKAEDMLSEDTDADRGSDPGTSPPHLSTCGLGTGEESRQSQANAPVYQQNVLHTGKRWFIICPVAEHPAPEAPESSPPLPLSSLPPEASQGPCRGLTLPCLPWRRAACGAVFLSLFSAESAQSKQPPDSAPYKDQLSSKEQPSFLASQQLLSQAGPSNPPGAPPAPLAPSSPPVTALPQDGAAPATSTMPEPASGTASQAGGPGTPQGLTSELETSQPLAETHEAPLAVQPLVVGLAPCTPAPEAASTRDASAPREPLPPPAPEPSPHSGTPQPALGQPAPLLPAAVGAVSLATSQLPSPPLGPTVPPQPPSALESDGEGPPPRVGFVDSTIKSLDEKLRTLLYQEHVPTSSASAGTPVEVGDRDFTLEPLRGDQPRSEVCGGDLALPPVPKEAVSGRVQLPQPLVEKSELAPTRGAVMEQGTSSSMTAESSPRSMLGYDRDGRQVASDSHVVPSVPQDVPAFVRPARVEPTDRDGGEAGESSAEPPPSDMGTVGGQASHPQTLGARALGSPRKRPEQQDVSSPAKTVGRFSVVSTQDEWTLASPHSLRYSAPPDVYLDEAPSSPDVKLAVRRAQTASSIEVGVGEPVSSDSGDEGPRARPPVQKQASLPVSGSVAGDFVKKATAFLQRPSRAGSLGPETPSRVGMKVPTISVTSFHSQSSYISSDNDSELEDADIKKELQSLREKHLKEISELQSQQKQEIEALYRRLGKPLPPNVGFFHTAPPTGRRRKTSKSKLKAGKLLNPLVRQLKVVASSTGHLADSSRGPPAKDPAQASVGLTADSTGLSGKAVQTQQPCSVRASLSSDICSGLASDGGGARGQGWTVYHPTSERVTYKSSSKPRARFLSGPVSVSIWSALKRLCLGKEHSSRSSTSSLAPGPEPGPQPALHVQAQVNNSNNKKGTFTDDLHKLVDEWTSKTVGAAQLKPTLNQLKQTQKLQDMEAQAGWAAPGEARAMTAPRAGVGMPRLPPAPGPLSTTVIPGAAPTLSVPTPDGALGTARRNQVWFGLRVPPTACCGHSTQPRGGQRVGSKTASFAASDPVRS

The target of another test is T1, Snk (Homo sapiens, UniProt Q9NYY3).
T1 construct: gene PLK2
T1 sequence (Q9NYY3 whole entry): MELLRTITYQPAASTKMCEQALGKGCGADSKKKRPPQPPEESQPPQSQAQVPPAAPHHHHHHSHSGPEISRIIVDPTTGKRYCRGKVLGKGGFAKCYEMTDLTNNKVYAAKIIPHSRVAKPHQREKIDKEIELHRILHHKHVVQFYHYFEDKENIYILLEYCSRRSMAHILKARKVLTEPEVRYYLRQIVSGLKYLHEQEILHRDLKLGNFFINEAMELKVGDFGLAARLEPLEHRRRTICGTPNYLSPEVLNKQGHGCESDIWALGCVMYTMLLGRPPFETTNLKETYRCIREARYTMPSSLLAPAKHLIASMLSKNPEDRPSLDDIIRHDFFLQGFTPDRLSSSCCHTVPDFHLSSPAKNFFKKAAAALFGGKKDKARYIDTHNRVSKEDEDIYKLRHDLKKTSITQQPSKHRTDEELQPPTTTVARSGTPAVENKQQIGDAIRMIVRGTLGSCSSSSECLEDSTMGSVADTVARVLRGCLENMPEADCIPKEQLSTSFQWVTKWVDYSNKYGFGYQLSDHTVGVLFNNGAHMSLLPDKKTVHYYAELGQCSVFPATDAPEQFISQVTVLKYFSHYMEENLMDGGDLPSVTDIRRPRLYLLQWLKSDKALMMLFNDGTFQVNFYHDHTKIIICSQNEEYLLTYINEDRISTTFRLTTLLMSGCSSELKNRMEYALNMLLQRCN
Kind of test: biochemical. Particulars: read-out: Upstate KSS % inhibition at 1uM. As to the method:
as §1

SMILES strings stand for the structures.

Take `OCCn1cc(-c2cnc3nnn(Cc4ccc5ncccc5c4)c3n2)cn1` [METi, PF-04217903]: the inhibition at 1 µM was -16% on WNK2 and -11% at Snk.

As a reminder, the inhibition is the drop in the measured response relative to a control, in per cent.
